{
  "source": "patent US11752159B2",
  "about": "“Compositions and methods for suppressing or reducing systemic immune response in a subject” (THE TRUSTEES OF THE UNIVERSITY OF PENNSYLVANIA, priority 2015, dated 2023)",
  "key": {"TSLP": {"tested_on": "TSLP", "test": "Systemic TSLP induction by topical vitamin D3 analogs (ELISA)", "assay_type": "in vivo, mice", "conditions": "for serum TSLP levels: topical, ear skin bilaterally, 2 nmol/ear in ethanol, after 5 days of treatment"}, "[1]": {"test": "Toxicity (morbidity and mortality) of topical vitamin D3 analogs in mice", "assay_type": "in vivo", "conditions": "for dose at which morbidity and mortality of mice was not observed: topical; for toxicity at 2 nmol/ear: topical 2 nmol/ear", "protocol": "(§1) VDR stimulation of keratinocytes led to TSLP production, which in certain embodiments caused increase in Treg numbers. The effects of two vitamin D3 analogs (22-Oxacalcitriol, also known as 22-OXA, and EB1089) on TSLP production and Treg numbers were evaluated. Similarly to MC903, 22-OXA and EB1089 were applied to the ear skin bilaterally at a dose of 2 nmol/ear dissolved in ethanol. After 5 days of treatment, the mice were bled and serum TSLP levels were measured. […] To avoid the toxic effect, the dose of 22-OXA and EB1089 was lowered to a point where morbidity and mortality of mice was not observed (0.4 nmol/ear for 22-OXA; 0.04 nmol/ear for EB1089). At this dose, no increase in TSLP level was detected in 22-OXA-treated mice (FIG. 9B)."}, "Tregs": {"tested_on": "Tregs", "test": "Treg % in blood and spleen after topical vitamin D3 analogs", "assay_type": "in vivo, mice", "conditions": "topical 0.04 nmol/ear", "text": "FIGS. 10A-10B comprise bar graphs illustrating data derived from topically treating mice with EtOH or EB1089 (0.04 nmol/ear) for 5 days and bleeding them on Day 7. Treg % from (FIG. 10A) blood and (FIG. 10B) spleen are illustrated. N=3 mice/group. *p<0.01 by Student t-test.\nas §1"}},
  "data": [
    {"smiles": "C=C1/C(=C\\C=C2/CCC[C@]3(C)[C@@H]([C@H](C)OCCC(C)(C)O)CC[C@@H]23)C[C@@H](O)C[C@@H]1O", "note": "[22-OXA, 22-oxa-1α,25(OH)2D3]", "values": [
      {"measurement": "TSLP level at 0.4 nmol/ear", "setting": "TSLP; topical 0.4 nmol/ear", "result": "no increase"},
      {"measurement": "serum TSLP levels", "setting": "TSLP", "result": "induced detectable amounts of TSLP"},
      {"measurement": "dose at which morbidity and mortality of mice was not observed", "setting": "[1]", "result": 0.4, "unit": "nmol/ear"},
      {"measurement": "toxicity at 2 nmol/ear", "setting": "[1]", "result": "toxicity-related morbidity and mortality"}
    ]},
    {"smiles": "C=C1/C(=C\\C=C2/CCC[C@]3(C)[C@@H]([C@H](C)/C=C/C=C/C(O)(CC)CC)CC[C@@H]23)C[C@@H](O)C[C@@H]1O", "note": "[EB1089, 1(S),3(R)-dihydroxy-20(R)-(5′-ethyl-5′-hydroxy-hepta-1′(E),3′(E)-dien-1′-yl)-9,10-secopregna-5(Z),7(E),10(19)-triene]", "values": [
      {"measurement": "TSLP level at 0.04 nmol/ear", "setting": "TSLP; topical 0.04 nmol/ear", "result": "some TSLP was detectable"},
      {"measurement": "serum TSLP levels", "setting": "TSLP", "result": "induced detectable amounts of TSLP"},
      {"measurement": "blood Tregs", "setting": "Tregs", "result": "only a subtle increase"},
      {"measurement": "splenic Treg numbers", "setting": "Tregs", "result": "did not have any effect"},
      {"measurement": "dose at which morbidity and mortality of mice was not observed", "setting": "[1]", "result": 0.04, "unit": "nmol/ear"},
      {"measurement": "toxicity at 2 nmol/ear", "setting": "[1]", "result": "toxicity-related morbidity and mortality"}
    ]}
  ]
}
